Measured values: patent US20040127492A1 (Pharmacia Corporation, priority 2002, published 2004)
Where two headings read alike, the source gives them in different places. Blank lines part the entries; values can stand above or below the compound they belong to.

Assays:
[1] = system: adjuvant arthritis; settings: rat adjuvant arthritis; cited from earlier work
[2] = system: collagen-induced arthritis; settings: mouse collagen-induced arthritis; cited from earlier work
[3] = system: endotoxin-induced shock; settings: murine model of endotoxin-induced shock; cited from earlier work
[4] = system: granulomas; settings: laboratory rats; cited from earlier work
[5] = target: MAPKAPK2 (MK-2) (Homo sapiens, UniProt P49137); experiment: Determination of MK-2 IC50 (HSP-peptide phosphorylation, anion exchange resin capture assay); assay type: biochemical
Method in brief: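 Radiometric peptide assay: 15 nM p38α-activated MK-2, HSP-peptide, 0.03 mM ATP with [γ33P]ATP, 2% DMSO, pH 7.5, 30° C for 30 min; unreacted ATP removed on AG 1×8 resin before counting. Six concentrations in ten-fold steps, each in triplicate, gave IC50 in μM.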

[6] = target: MK-3 (Homo sapiens, UniProt Q16644); experiment: MK-3 inhibition IC50 (similar method to MK-2, with appropriate modifications); assay type: biochemical; settings: read-out: MK-3 Avg. IC50
[7] = Table 1, phenoxypyrazole MK-2 inhibitors, read-out: MK-2 Avg, IC50
[8] = Table 1, phenoxypyrazole MK-2 inhibitors
[9] = Table 5, other cyclic pyrazole MK-2 inhibiting compounds, read-out: MK-2 Avg. IC50
[10] = Table 5, other cyclic pyrazole MK-2 inhibiting compounds

Chain of MAPKAPK2 (MK-2) (P49137 whole entry, species assumed): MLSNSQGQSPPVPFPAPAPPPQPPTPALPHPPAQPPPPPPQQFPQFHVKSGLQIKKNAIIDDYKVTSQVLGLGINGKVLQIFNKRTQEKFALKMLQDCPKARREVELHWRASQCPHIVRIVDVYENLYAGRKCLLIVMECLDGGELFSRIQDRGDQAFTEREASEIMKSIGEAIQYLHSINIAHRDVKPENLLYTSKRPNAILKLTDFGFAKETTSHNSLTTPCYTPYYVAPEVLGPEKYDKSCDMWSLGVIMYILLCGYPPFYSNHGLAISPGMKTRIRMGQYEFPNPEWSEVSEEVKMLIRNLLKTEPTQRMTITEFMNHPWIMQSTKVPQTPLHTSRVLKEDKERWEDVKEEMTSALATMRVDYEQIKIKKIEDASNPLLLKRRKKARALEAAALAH
Chain of MK-3 (Q16644 whole entry, species assumed): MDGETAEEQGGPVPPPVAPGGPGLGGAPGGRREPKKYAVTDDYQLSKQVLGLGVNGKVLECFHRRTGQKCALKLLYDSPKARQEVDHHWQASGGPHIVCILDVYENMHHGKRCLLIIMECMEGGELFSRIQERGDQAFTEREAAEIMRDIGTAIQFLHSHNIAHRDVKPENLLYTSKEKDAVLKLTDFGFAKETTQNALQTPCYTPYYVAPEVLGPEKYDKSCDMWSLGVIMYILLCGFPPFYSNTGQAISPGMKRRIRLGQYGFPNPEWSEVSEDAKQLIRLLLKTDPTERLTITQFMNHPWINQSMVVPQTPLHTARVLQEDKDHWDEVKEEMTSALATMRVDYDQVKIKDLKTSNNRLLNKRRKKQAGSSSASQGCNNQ

Structure (SMILES): C[S+]([O-])c1ccc(-c2nc(-c3ccncc3)c(-c3ccc(F)cc3)[nH]2)cc1 (stereo not drawn) [SB203580]
development of arthritis [1]: inhibit the development
development of arthritis [2]: inhibit the development
mortality [3]: reduce mortality

Structure (SMILES): Nc1nccc(-c2c(-c3ccc(F)cc3)ncn2C2CCNCC2)n1 [SB 220025]
vascular density of granulomas [4]: significant dose-dependent decrease

Structure (SMILES): O=C1NCCCn2nc3c(c21)CCc1cnc(-c2ccc(O)cc2)cc1-3 [Example 31]
IC50 ([5]; read-out: MK-2 Avg. IC50): 0.183 µM
IC50 [6]: 2.56 µM

Structure (SMILES): CCOC(=O)c1c2c(nn1CCCN)-c1c(SC)n[nH]c1CC2 [Example 20]
IC50 ([5]; Table 2, pyrazolylpyrazole MK-2 inhibitors, read-out: MK-2 Avg. IC50): 55.3 µM
IC50 ([6]; Table 2, pyrazolylpyrazole MK-2 inhibitors): ≥ 200 µM

Structure (SMILES): Cn1nc2c(c1C(=O)O)CCc1cc(O)ccc1-2 [Example 34]
IC50 [5, 7]: 44.4 µM
IC50 [6, 8]: > 200 µM

Structure (SMILES): NCCCn1nc2c(c1C(=O)O)CCc1cc(O)ccc1-2 [Example 4]
IC50 [5, 7]: 2.09 µM
IC50 [6, 8]: 37.9 µM

Structure (SMILES): O=C(O)c1c2c(nn1CCCNCCc1ccc(Cl)s1)-c1ccncc1CC2 [Example 57]
IC50 ([5]; read-out: MK-2 Avg. IC50): 0.559 µM
IC50 [6]: 8.85 µM

Structure (SMILES): NCCCn1nc2c(c1C(=O)O)CCc1cc(O)c(N)cc1-2 [Example 27]
IC50 [5, 7]: 26.8 µM
IC50 [6, 8]: > 200 µM

Structure (SMILES): O=C1NCCCn2nc3c(c21)CCc1cnc(-c2cnc4ccccc4c2)cc1-3 [Example 30]
IC50 ([5]; read-out: MK-2 Avg. IC50): 0.171 µM
IC50 [6]: 11.9 µM

Structure (SMILES): O=C1NCCn2nc3c(c21)CCc1cnc(/C=C/c2ccccc2)cc1-3 [Example 36]
IC50 ([5]; read-out: MK-2 Avg. IC50): 0.21 µM
IC50 [6]: 11.5 µM

Structure (SMILES): O=C1NCCn2nc3c(c21)CCc1cnc(/C=C/c2ccc(Cl)cc2)cc1-3 [Example 6]
IC50 [5, 9]: 0.536 µM
IC50 [6, 10]: > 20 µM

Structure (SMILES): O=C1NCCn2nc3c(c21)CCc1cnc(/C=C/c2ccc(F)c(F)c2)cc1-3 [Example 7]
IC50 [5, 9]: 0.623 µM
IC50 [6, 10]: > 20 µM

Results, then the compound that gave them:

IC50 ([5]; read-out: MK-2 Avg. IC50): 36.9 µM
IC50 [6]: 186 µM
Structure (SMILES): N#CC(N)CCn1nc2c(c1C(=O)O)CCc1cnccc1-2 (stereo not drawn) [Example 207]

IC50 [5, 7]: > 200 µM
IC50 [6, 8]: > 200 µM
Structure (SMILES): CCOC(=O)c1nn(-c2ccc(S(N)(=O)=O)cc2)c2c1CCc1cc(OC)ccc1-2 [Example 178]

IC50 ([5]; read-out: MK-2 Avg. IC50): 9.73 µM
IC50 [6]: 133 µM
Structure (SMILES): Nc1ccc(NCCCn2nc3c(c2C(=O)O)CCc2cnccc2-3)cc1 [Example 158]

IC50 [5, 7]: 173 µM
IC50 [6, 8]: 196 µM
Structure (SMILES): CC1Cc2cc(O)ccc2-c2n[nH]c(C(N)=O)c21 (stereo not drawn) [Example 68]

IC50 [5, 7]: 148 µM
IC50 [6, 8]: > 200 µM
Structure (SMILES): COc1cc2c(cc1-c1cccn1C(=O)OC(C)(C)C)-c1nn(CCCNC(=O)OC(C)(C)C)c(C(=O)O)c1CC2 [Example 58]

IC50 [5, 7]: > 200 µM
IC50 [6, 8]: > 200 µM
Structure (SMILES): CCOC(=O)c1[nH]nc2c1CCc1cc(OC)c(OC)cc1-2 [Example 167]
